Key:
Experiment in all cases: Quantitative competitive binding assay (KINOMEscan)
ASK2 (MAP3K6) = molecular target: T1, ASK2 (MAP3K6) (Homo sapiens, UniProt O95382); conditions: for remaining binding at 0.05 µM: read-out: Percent control (50 nM); for remaining binding at 0.2 µM: read-out: Percent control (200 nM); for remaining binding at 1 µM: read-out: Percent control (1000 nM); for remaining binding at 10 µM: read-out: Percent control (10 μM)
T1 construct: purchased KINOMEscan (DiscoveRx), San Diego, CA
T1 sequence (O95382 1-1288): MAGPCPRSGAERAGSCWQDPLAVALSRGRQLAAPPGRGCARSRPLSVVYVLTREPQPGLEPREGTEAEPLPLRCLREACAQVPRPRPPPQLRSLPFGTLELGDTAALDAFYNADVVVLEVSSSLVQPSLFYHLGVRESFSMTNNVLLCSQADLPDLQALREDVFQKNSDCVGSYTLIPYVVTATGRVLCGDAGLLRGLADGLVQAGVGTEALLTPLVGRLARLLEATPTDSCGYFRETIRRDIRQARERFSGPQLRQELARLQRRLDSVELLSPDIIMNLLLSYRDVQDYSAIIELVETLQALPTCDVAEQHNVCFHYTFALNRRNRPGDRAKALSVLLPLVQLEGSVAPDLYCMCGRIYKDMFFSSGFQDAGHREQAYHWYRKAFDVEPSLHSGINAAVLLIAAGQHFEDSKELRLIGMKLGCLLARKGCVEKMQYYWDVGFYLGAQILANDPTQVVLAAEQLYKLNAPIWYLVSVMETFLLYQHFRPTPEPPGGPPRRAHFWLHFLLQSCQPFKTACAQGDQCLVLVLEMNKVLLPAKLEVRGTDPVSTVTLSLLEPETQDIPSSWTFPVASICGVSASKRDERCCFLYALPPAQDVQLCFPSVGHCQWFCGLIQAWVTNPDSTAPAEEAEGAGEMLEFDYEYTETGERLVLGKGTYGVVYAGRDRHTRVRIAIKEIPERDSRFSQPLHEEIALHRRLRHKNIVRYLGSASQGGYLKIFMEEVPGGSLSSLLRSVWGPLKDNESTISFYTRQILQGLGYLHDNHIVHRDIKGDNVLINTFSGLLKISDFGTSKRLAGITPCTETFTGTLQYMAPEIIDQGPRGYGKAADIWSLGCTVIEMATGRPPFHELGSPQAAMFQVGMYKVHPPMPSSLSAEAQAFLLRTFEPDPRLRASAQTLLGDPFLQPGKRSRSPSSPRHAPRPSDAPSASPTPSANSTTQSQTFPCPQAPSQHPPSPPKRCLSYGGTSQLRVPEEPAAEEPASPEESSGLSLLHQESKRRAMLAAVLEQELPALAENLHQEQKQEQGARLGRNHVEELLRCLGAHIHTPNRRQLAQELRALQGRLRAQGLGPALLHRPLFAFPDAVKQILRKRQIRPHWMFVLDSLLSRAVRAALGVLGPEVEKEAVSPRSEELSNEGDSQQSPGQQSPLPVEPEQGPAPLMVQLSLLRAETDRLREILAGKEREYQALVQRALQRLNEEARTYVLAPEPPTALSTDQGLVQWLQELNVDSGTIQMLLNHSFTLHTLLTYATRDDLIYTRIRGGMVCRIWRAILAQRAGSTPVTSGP

FGR = molecular target: T2, FGR (Homo sapiens, UniProt P09769); conditions: for IC50: estimated Kd, averaged pointwise estimates, transformed Hill equation, read-out: Calculated estimate of IC50; for remaining binding at 0.05 µM: read-out: Percent control (50 nM); for remaining binding at 0.2 µM: read-out: Percent control (200 nM); for remaining binding at 1 µM: read-out: Percent control (1000 nM); for remaining binding at 10 µM: read-out: Percent control (10 μM)
T2 construct: purchased KINOMEscan (DiscoveRx), San Diego, CA
T2 sequence (P09769 whole entry): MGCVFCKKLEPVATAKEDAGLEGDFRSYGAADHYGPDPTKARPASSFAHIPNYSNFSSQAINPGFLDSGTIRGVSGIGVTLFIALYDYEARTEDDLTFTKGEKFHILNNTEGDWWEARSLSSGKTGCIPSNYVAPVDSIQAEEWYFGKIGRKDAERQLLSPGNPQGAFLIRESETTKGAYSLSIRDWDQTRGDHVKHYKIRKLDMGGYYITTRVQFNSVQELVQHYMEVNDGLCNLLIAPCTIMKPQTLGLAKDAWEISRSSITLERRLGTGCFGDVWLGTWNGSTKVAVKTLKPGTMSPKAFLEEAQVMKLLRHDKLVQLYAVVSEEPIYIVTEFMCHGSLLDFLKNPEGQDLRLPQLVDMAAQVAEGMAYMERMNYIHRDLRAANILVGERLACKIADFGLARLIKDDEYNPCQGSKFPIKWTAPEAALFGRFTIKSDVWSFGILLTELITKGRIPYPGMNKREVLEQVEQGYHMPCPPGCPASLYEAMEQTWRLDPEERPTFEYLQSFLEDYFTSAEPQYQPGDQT

TAOK2 = molecular target: T3, TAOK2 (Homo sapiens, UniProt Q9UL54); conditions: for remaining binding at 0.05 µM: read-out: Percent control (50 nM); for remaining binding at 0.2 µM: read-out: Percent control (200 nM); for remaining binding at 1 µM: read-out: Percent control (1000 nM); for remaining binding at 10 µM: read-out: Percent control (10 μM)
T3 construct: purchased KINOMEscan (DiscoveRx), San Diego, CA
T3 sequence (Q9UL54 1-1235): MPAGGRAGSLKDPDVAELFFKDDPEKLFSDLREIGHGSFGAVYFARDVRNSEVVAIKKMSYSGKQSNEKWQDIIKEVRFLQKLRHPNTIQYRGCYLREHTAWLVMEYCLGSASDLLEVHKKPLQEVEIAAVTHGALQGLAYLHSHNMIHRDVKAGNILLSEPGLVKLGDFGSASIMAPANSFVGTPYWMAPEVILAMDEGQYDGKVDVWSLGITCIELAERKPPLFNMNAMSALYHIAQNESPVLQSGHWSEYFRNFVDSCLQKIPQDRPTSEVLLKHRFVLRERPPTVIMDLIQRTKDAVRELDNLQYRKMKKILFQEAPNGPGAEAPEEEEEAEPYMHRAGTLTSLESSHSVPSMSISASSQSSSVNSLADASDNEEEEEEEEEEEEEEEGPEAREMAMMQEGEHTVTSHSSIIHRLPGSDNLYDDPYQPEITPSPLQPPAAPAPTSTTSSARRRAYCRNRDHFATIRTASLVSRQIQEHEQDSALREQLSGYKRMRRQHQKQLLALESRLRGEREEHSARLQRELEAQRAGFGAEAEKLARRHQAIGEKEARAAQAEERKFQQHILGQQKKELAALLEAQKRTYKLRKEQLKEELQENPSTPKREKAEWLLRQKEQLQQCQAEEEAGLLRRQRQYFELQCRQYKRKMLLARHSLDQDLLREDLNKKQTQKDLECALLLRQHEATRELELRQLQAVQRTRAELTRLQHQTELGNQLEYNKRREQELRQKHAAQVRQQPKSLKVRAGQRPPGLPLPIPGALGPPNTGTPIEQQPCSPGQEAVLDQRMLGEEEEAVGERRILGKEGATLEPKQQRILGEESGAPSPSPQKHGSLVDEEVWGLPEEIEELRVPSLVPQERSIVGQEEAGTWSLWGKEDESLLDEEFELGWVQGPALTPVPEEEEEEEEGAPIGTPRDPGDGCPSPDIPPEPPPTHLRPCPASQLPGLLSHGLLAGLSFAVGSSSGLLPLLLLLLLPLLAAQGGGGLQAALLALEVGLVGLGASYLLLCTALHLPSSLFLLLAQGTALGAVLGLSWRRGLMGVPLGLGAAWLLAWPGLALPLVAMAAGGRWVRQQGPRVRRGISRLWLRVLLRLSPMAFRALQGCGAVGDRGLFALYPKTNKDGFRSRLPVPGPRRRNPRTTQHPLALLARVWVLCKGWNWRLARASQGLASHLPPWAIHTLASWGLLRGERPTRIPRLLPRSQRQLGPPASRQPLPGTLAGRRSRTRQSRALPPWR

Row | Structure (SMILES) | remaining binding at 0.05 µM (ASK2 (MAP3K6)) | remaining binding at 0.2 µM (ASK2 (MAP3K6)) | remaining binding at 1 µM (ASK2 (MAP3K6)) | remaining binding at 10 µM (ASK2 (MAP3K6)) | IC50 (FGR) | remaining binding at 0.05 µM (FGR) | remaining binding at 0.2 µM (FGR) | remaining binding at 1 µM (FGR) | remaining binding at 10 µM (FGR) | remaining binding at 0.05 µM (TAOK2) | remaining binding at 0.2 µM (TAOK2) | remaining binding at 1 µM (TAOK2) | remaining binding at 10 µM (TAOK2) | IC50 (TAOK2; estimated Kd, averaged pointwise estimates, transformed Hill equation, read-out: Calculated estimate of IC50)
1 | CCCS(=O)(=O)Nc1ccc(F)c(C(=O)c2c[nH]c3ncc(Cl)cc23)c1F [PLX4720] | 94% | 100% | 100% | 100% | 153 nM | 69% | 38% | 11% | 2.5% | 92% | 100% | 93% | 51% | –
2 | CCCS(=O)(=O)Nc1ccc(F)c(C(=O)c2c[nH]c3ncc(-c4ccc(Cl)cc4)cc23)c1F [vemurafenib] | 94% | 98% | 100% | 74% | 149 nM | 65% | 49% | 13% | 1.6% | 98% | 92% | 95% | 70% | 11800 nM
